In article PMC10424186 (Journal of Medicinal Chemistry, 2023):
Several values for one entry are separate records, joined by “and”; a condition that tells them apart may be missing. Identical values can stand only once. Like-named read-outs stand apart in the source and are kept apart here.

Key:
Assay type in all cases: biochemical
human JMJD5 = human JMJD5 (Homo sapiens, UniProt Q8N371); assay: SPE-MS JMJD5 inhibition assay (hydroxylation of RPS6 128–148 peptide)
Excerpt: Synthetic peptides with sequences based on reported human 2OG oxygenase substrates were used in SPE-MS inhibition assays: RPS6, residues 128–148, for JMJD5;[42] HIF-α CODD, residues 558–574, for PHD2;[70] HIF-α CAD, residues 788–822, for FIH;[70] H3_1-15K9me3, histone 3 (H3), residues 1–15 with K9 of H3-bearing three methyl groups at the N^ε-position, K4 of H3 substituted by an alanine residue, and K14 of H3 by an isoleucine residue,[73] for KDM4E; and RPL27A, residues 31–49, for RIOX2 (Mina53).[44] All peptides were prepared as C-terminal amides by GL Biochem (Shanghai) Ltd. A synthetic thioether-linked cyclic peptide, hFX-CP101–119,[48] which was designed based on the reported cellular AspH substrate human coagulation factor X (hFX, residues 101–119; C101 was substituted for a D-alanine residue and C112 for a serine residue),[79] was used as AspH substrate; it was prepared with a C-terminal amide according to literature protocols.[80]
Cosubstrate/cofactor stock solutions [L-ascorbic acid/LAA: 50 mM in MQ-grade water; 2-oxoglutarate/2OG: 10 mM in MQ-grade water; ammonium iron(II) sulfate hexahydrate/FAS/(NH4)2Fe(SO4)2·6H2O: 400 mM in 20 mM HCl diluted to 1 mM in MQ-grade water] were freshly prepared from commercial solids (Sigma-Aldrich) on the day the assays were performed. The JMJD5,[42] PHD2,[70] FIH,[70] KDM4E,[72],[73] RIOX2,[44] and AspH[45] SPE-MS inhibition assays were performed as described in the cited literature, using isolated recombinant human enzymes (His6-thioredoxin-JMJD5,[42] His6-PHD2_181–426,[70] His6-FIH,[70] His6-KDM4E,[72],[73] His6-RIOX2_26–465,[87],[88] and His6-AspH315–758[48],[80]) and synthetic peptide substrates (RPS6_128–148 for JMJD5;[42] HIF-α CODD558–574 for PHD2;[70] HIF-α CAD788–822 for FIH;[70] H3_1–15K9me3 for KDM4E;[73] RPL27A31–49 for RIOX2;[44],[71] and hFX-CP101–119 for AspH;[45],[48] see above). For JMJD5, PHD2, FIH, RIOX2, and AspH, substrate hydroxylation was monitored (+16 Da mass shift), while for the KDM4E substrate, demethylation was monitored (−14 Da mass shift) by SPE-MS.

PHD2 = biological target: T1, PHD2 (Homo sapiens, UniProt Q9GZT9); assay: SPE-MS PHD2 inhibition assay (HIF-1α CODD hydroxylation); conditions: Table 2; PHD2 181–426 […], 5.0 μM HIF-1α CODD; n = 2, mean ± SD
T1 construct: His6-PHD2_181–426; made in house; host or cells: Escherichia coli
Description: (§1) H3_1-15K9me3, histone 3 (H3), residues 1–15 with K9 of H3-bearing three methyl groups at the N^ε-position, K4 of H3 substituted by an alanine residue, and K14 of H3 by an isoleucine residue,[73] for KDM4E; and RPL27A, residues 31–49, for RIOX2 (Mina53).[44]
(§2) Cosubstrate/cofactor stock solutions [L-ascorbic acid/LAA: 50 mM in MQ-grade water; 2-oxoglutarate/2OG: 10 mM in MQ-grade water; ammonium iron(II) sulfate hexahydrate/FAS/(NH4)2Fe(SO4)2·6H2O: 400 mM in 20 mM HCl diluted to 1 mM in MQ-grade water] were freshly prepared from commercial solids (Sigma-Aldrich) on the day the assays were performed. The JMJD5,[42] PHD2,[70] FIH,[70] KDM4E,[72],[73] RIOX2,[44] and AspH[45] […] For JMJD5, PHD2, FIH, RIOX2, and AspH, substrate hydroxylation was monitored (+16 Da mass shift), while for the KDM4E substrate, demethylation was monitored (−14 Da mass shift) by SPE-MS.

AspH = biological target: T2, AspH (Homo sapiens, UniProt Q12797); assay: SPE-MS AspH inhibition assay (hFX-CP101–119 hydroxylation); conditions: Table 2; His6-AspH315–758 0.05 μM, 1.0 μM hFX-CP101–119; n = 2, mean ± SD
T2 construct: N-terminally His6-tagged AspH315–758; made in house; host or cells: Escherichia coli
T2 sequence (Q12797 315-758): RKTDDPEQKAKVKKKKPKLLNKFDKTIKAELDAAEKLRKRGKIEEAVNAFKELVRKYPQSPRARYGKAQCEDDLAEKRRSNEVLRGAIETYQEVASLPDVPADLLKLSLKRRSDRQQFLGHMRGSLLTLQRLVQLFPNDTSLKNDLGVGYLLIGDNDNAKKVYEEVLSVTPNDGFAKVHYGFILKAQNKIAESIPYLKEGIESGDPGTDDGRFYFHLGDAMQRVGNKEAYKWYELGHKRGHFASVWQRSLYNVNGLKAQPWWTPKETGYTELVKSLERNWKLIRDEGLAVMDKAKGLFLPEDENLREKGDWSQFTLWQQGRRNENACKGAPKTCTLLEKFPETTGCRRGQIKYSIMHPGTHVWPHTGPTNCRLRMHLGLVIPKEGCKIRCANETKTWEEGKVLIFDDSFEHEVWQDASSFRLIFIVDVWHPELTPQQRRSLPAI
Description: as §1, §2

KDM4E = biological target: T3, KDM4E (Homo sapiens, UniProt B2RXH2); assay: SPE-MS KDM4E inhibition assay (demethylation of H3 1–15 K9me3); conditions: Table 2, 10.0 μM H3 1–15 K9me3, n = 2, mean ± SD
T3 construct: made in house; host or cells: Escherichia coli
T3 sequence (B2RXH2 1-506): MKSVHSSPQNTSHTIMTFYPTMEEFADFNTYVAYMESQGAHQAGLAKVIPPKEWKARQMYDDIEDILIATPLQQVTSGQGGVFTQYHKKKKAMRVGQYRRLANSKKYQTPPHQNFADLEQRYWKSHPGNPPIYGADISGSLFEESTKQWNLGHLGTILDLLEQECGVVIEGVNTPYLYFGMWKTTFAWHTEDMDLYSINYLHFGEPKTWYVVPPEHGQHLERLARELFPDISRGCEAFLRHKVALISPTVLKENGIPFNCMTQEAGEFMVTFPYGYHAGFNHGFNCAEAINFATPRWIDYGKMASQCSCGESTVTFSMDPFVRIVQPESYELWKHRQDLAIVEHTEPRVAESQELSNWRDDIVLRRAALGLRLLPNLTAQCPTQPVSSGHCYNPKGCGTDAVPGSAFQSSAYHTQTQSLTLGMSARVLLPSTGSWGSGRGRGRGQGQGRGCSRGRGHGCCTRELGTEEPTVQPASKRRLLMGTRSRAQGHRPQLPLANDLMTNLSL
Description: as §1, §2

[1] = Table 1, JMJD5 […], 2OG 2.0 μM, Fe(II) 2.0 μM, LAA 100 μM, RPS6 128–148 2.0 μM, pH 7.5, 20 °C, n = 3, mean ± SD, read-out: IC50 JMJD5
[2] = isolated recombinant JMJD5, SPE-MS, approximate values, read-out: IC50 for JMJD5 inhibition
[3] = supplementary CSV, read-out: IC50 JMJD5
[4] = isolated recombinant JMJD5, SPE-MS

Chain of human JMJD5 (Q8N371 whole entry, the tested form may be a part): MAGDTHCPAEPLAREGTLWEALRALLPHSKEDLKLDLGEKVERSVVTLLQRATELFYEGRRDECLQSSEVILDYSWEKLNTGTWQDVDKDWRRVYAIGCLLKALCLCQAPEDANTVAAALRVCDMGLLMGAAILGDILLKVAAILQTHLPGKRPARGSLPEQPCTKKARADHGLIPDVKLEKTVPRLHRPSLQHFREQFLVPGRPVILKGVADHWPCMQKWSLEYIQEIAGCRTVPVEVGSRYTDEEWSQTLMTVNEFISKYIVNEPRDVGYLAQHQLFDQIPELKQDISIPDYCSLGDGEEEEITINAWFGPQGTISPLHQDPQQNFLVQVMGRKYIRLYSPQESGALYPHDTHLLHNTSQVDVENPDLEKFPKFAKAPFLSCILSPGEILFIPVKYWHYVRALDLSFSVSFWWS
T1 sequence (Q9GZT9 181-426): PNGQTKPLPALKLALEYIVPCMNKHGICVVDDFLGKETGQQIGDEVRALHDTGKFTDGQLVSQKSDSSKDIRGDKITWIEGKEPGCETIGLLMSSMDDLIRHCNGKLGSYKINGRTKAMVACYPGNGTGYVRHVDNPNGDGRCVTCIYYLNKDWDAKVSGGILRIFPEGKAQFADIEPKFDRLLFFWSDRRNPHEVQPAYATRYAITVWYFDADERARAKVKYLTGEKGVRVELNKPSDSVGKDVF

Compound	IC50 (human JMJD5; [1]) [µM]	IC50 (human JMJD5; [2])	IC50 (human JMJD5; [3]) [µM]	also measured
O=C(O)c1ccnc(C(=O)O)c1Nc1ccccc1[N+](=O)[O-] [Compound 2]	17.9 ± 2.6	~17.9 µM and ~16.8 µM	17.9 ± 2.6	–
O=C(O)c1ccnc(C(=O)O)c1NCc1ccccc1 [Compound 3]	9.5 ± 2.2	–	9.5 ± 2.2	–
O=C(O)c1ccncc1NCc1ccccc1 [Compound 4]	> 50	–	> 50	JMJD5 inhibition (in words) (human JMJD5; [4]): does not inhibit JMJD5
O=C(O)c1ccnc(C(=O)O)c1NCC1CCCCC1 [Compound 5]	25.3 ± 0.5	~25.3 µM	25.3 ± 0.5	–
COc1ccc(CNc2c(C(=O)O)ccnc2C(=O)O)cc1 [Compound 6]	5.8 ± 2.9	–	5.8 ± 2.9	–
O=C(O)c1ccnc(C(=O)O)c1NCc1ccc(C(F)(F)F)cc1 [Compound 7]	10.4 ± 4.4	–	10.4 ± 4.4	–
CC(Nc1c(C(=O)O)ccnc1C(=O)O)c1ccccc1 (stereo not drawn) [Compound 8]	3.1 ± 1.5	~3.1 µM	3.1 ± 1.5	JMJD5 inhibition less efficient than 2,4-PDCA (1) (human JMJD5; compared with 1): ~6 fold and ~ 5 fold; JMJD5 inhibition more efficient than 3 (human JMJD5; compared with 3): ~3 fold
CCC(Nc1c(C(=O)O)ccnc1C(=O)O)c1ccccc1 (stereo not drawn) [Compound 9]	7.5 ± 2	~7.5 µM	7.5 ± 2	–
O=C(O)c1ccnc(C(=O)O)c1NCCc1ccccc1 [Compound 10]	19.6 ± 3	–	19.6 ± 3	–
O=C(O)c1ccnc(C(=O)O)c1NCCCc1ccccc1 [Compound 11]	19.7 ± 3	–	19.7 ± 3	–
O=C(O)c1ccnc(C(=O)O)c1NCCCCc1ccccc1 [Compound 12]	20.8 ± 0.2	–	20.8 ± 0.2	–
O=C(O)c1ccnc(C(=O)O)c1F [Compound 13, 3-fluoro-2,4-PDCA]	27.2 ± 2.9	–	27.2 ± 2.9	JMJD5 inhibition (in words) (human JMJD5; [4]): did not efficiently inhibit JMJD5
O=C(O)c1cc(C(=O)O)c(F)cn1 [Compound 15, 5-fluoro-2,4-PDCA]	4.5 ± 0.9	~4.5 µM	4.5 ± 0.9	JMJD5 inhibition (in words) (human JMJD5; [4]): inhibits
O=C(O)c1cc(C(=O)O)c(NCc2ccccc2)cn1 [Compound 20a, 5-(benzylamino)pyridine-2,4-dicarboxylic acid]	–	–	–	IC50 (PHD2): > 50 µM; IC50 (AspH): 0.5 ± 0.2 µM; IC50 (KDM4E): 3.2 ± 1.6 µM
